Measurements: ChEMBL document CHEMBL1201862, “PubChem BioAssay data set” (2004)
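Grown in 96-well plates, cells were treated for 48 hours with each compound at five concentrations. Insufficient inhibition: endpoint recorded as highest concentration tested. GI50 is the concentration that inhibits growth by half.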 The source made the active and inactive calls. No stated cut-off is given here; in the data, active = GI50 up to about 1.1 µM and inactive = higher.

Experiments:
Assay in all cases: NCI anticancer screen, dose series, 48 h
U-251 = tested on: U-251
HCC 2998 = tested on: HCC 2998
CCRF-CEM = tested on: CCRF-CEM
DLD-1 = tested on: DLD-1
NCI-H23 = tested on: NCI-H23
SNB-19 = tested on: SNB-19
OVCAR-4 = tested on: OVCAR-4
TK-10 = tested on: TK-10
786-0 = tested on: 786-0
Malme-3M = tested on: Malme-3M
SR = tested on: SR
LXFL 529 = tested on: LXFL 529
SK-MEL-2 = tested on: SK-MEL-2
HCT-15 = tested on: HCT-15
SK-MEL-28 = tested on: SK-MEL-28
KM12 = tested on: KM12
DMS-273 = tested on: DMS-273
SNB-75 = tested on: SNB-75
UACC-257 = tested on: UACC-257
KM-20L2 = tested on: KM-20L2
COLO 205 = tested on: COLO 205
SW-620 = tested on: SW-620
HCT-116 = tested on: HCT-116
K562 = tested on: K562
CAKI-1 = tested on: CAKI-1
SK-MEL-5 = tested on: SK-MEL-5
NCI-H522 = tested on: NCI-H522
SF-268 = tested on: SF-268
UACC-62 = tested on: UACC-62
MOLT-4 = tested on: MOLT-4
HOP-62 = tested on: HOP-62
A498 = tested on: A498
HL-60 = tested on: HL-60
SF-295 = tested on: SF-295
UO-31 = tested on: UO-31
SK-OV-3 = tested on: SK-OV-3
SNB-78 = tested on: SNB-78
IGROV-1 = tested on: IGROV-1
NCI-H460 = tested on: NCI-H460
A549 = tested on: A549
OVCAR-8 = tested on: OVCAR-8
SN12C = tested on: SN12C
DMS-114 = tested on: DMS-114
ACHN = tested on: ACHN
RXF 393 = tested on: RXF 393
RXF 631 = tested on: RXF 631
SF-539 = tested on: SF-539
M19-MEL = tested on: M19-MEL
RPMI-8226 = tested on: RPMI-8226
HT-29 = tested on: HT-29
OVCAR-3 = tested on: OVCAR-3
M14 = tested on: M14
HOP-18 = tested on: HOP-18
EKVX = tested on: EKVX
OVCAR-5 = tested on: OVCAR-5
HOP-92 = tested on: HOP-92
LOX IMVI = tested on: LOX IMVI

## C1CSC(=[N+]2CC[N+](=C3SCCS3)CC2)S1
U-251
  GI50: > 100 µM (inactive)
HCC 2998
  GI50: > 100 µM (inactive)
CCRF-CEM
  GI50: 36.6 µM (inactive)
DLD-1
  GI50: > 100 µM (inactive)
NCI-H23
  GI50: > 100 µM (inactive)
SNB-19
  GI50: > 100 µM (inactive)
OVCAR-4
  GI50: > 100 µM (inactive)
TK-10
  GI50: > 100 µM (inactive)
786-0
  GI50: > 100 µM (inactive)
Malme-3M
  GI50: > 100 µM (inactive)
SR
  GI50: 83.8 µM (inactive)
LXFL 529
  GI50: > 100 µM (inactive)
SK-MEL-2
  GI50: > 100 µM (inactive)
HCT-15
  GI50: > 100 µM
SK-MEL-28
  GI50: > 100 µM (inactive)
KM12
  GI50: > 100 µM (inactive)
DMS-273
  GI50: > 100 µM (inactive)
SNB-75
  GI50: > 100 µM (inactive)
UACC-257
  GI50: > 100 µM (inactive)
KM-20L2
  GI50: > 100 µM (inactive)
COLO 205
  GI50: > 100 µM (inactive)
SW-620
  GI50: > 100 µM (inactive)
HCT-116
  GI50: > 100 µM (inactive)
K562
  GI50: > 100 µM (inactive)
CAKI-1
  GI50: > 100 µM (inactive)
SK-MEL-5
  GI50: > 100 µM (inactive)
NCI-H522
  GI50: > 100 µM (inactive)
SF-268
  GI50: > 100 µM (inactive)
UACC-62
  GI50: > 100 µM (inactive)
MOLT-4
  GI50: 44.9 µM (inactive)
HOP-62
  GI50: > 100 µM (inactive)
A498
  GI50: > 100 µM (inactive)
HL-60
  GI50: > 100 µM (inactive)
SF-295
  GI50: > 100 µM (inactive)
UO-31
  GI50: > 100 µM (inactive)
SK-OV-3
  GI50: > 100 µM (inactive)
SNB-78
  GI50: > 100 µM (inactive)
IGROV-1
  GI50: > 100 µM (inactive)
NCI-H460
  GI50: > 100 µM (inactive)
A549
  GI50: > 100 µM (inactive)
OVCAR-8
  GI50: > 100 µM (inactive)
SN12C
  GI50: > 100 µM (inactive)
DMS-114
  GI50: > 100 µM (inactive)
ACHN
  GI50: > 100 µM (inactive)
RXF 393
  GI50: > 100 µM (inactive)
RXF 631
  GI50: > 100 µM (inactive)
SF-539
  GI50: > 100 µM (inactive)
M19-MEL
  GI50: > 100 µM (inactive)
RPMI-8226
  GI50: > 100 µM (inactive)
HT-29
  GI50: > 100 µM (inactive)
OVCAR-3
  GI50: > 100 µM (inactive)
M14
  GI50: > 100 µM (inactive)
HOP-18
  GI50: > 100 µM (inactive)
EKVX
  GI50: > 100 µM (inactive)
OVCAR-5
  GI50: > 100 µM (inactive)
HOP-92
  GI50: 45.4 µM (inactive)
LOX IMVI
  GI50: 39.2 µM (inactive)
